Test results: PubChem BioAssay AID1996
≈ marks a conversion by molar mass, not a printed value. Non-standard residues stand in square brackets, D forms with d. Residues, ends and D or L forms follow the SMILES beside them. pGlu = O=C1CC[C@@H](C(=O)O)N1; Thz = O=C(O)[C@@H]1CSCN1

Details: buffer; pH 7.4; 200.0 µM

| Compound | solubility kinetic |
| --- | --- |
| O=C(CSc1nc2ccccc2c(=O)n1-c1ccccc1F)NC1CC1 | > 55.4 µg/mL |
| Cc1cccc(Nc2nc(-c3ccccc3)cs2)n1 | 0.3 µg/mL (≈ 1.12 µM) |
| Cc1cc(C)c(N=C2C(=O)Nc3ccccc32)c(C)c1 | > 39.6 µg/mL |
| Cc1cccc(Nc2nc(-c3ccc(O)cc3O)cs2)n1 | 4.7 µg/mL (≈ 15.7 µM) |
| CN(C)c1cccc(N(C)C)c1CNC(=O)NC(=O)c1c(F)cccc1F | 0.3 µg/mL (≈ 0.797 µM) |
| COc1cc(C(=O)NCCCCc2ccccc2)cc(OC)c1OC | 4.5 µg/mL (≈ 13.1 µM) |
| CCNC(=O)C1CCCN1S(=O)(=O)c1ccc2ccccc2c1 (centres undefined) | > 49.9 µg/mL |
| O=c1cc(COc2ccc(Cl)c(Cl)c2)nc2sccn12 | 1.1 µg/mL (≈ 3.36 µM) |
| COc1cc(OC)nc(Oc2ccc(N)c(C)c2)n1 | > 39.2 µg/mL |
| O=C1CCc2ccc(NS(=O)(=O)c3ccc(F)cc3)cc2N1 | > 48.1 µg/mL |
| Cc1cc(C)c(S(=O)(=O)Nc2nccs2)c(C)c1 | 36.1 µg/mL (≈ 128 µM) |
| Nc1nc(COC(=O)c2ccc3c(c2)OCCO3)nc(Nc2ccccc2)n1 | 3.9 µg/mL (≈ 10.3 µM) |
| O=C(NC1CCN(C(=O)Nc2cccc(Cl)c2)CC1)c1ccco1 | 46.1 µg/mL (≈ 133 µM) |
| Cc1ccccc1C(=O)NC1CCN(CC(=O)NC2CCCCC2)CC1 | > 53.6 µg/mL |
| O=C(CCN1C(=O)C2CC=CCC2C1=O)Nc1nccs1 (centres undefined) | > 45.8 µg/mL |
| Cn1ccnc1SCC(=O)Nc1ccc([N+](=O)[O-])cn1 | > 44 µg/mL |
| O=C(/C=C/c1ccco1)NCC1COc2ccccc2O1 (centres undefined) | > 42.8 µg/mL |
| CC1(NC(=O)Cc2csc(-c3ccc(Cl)cc3)n2)CCS(=O)(=O)C1 (centres undefined) | > 57.7 µg/mL |
| CCCc1c(C)nc(N2CCN(c3ccccc3F)CC2)[nH]c1=O | 0.4 µg/mL (≈ 1.21 µM) |
| CCOc1ccc(CNC2CCCCCCC2)cc1OC.Cl | 37.1 µg/mL |

| Compound | solubility kinetic |
| --- | --- |
| CN1CCN(C(=O)CN(C)S(=O)(=O)c2ccc(F)cc2)CC1 | 44.7 µg/mL (≈ 136 µM) |
| O=C(NC1CCCC1)c1cc(-c2ccc(Cl)cc2)on1 | < 0.3 µg/mL |
| COc1ccc(OC)c(/C=C/c2nc3ccccc3[nH]c2=O)c1 | 3.1 µg/mL (≈ 10.1 µM) |
| CC(C)(C)c1ccc(C(=O)N2CCN(C(=O)c3cccs3)CC2)cc1 | > 53.5 µg/mL |
| CC(C)(C)NC(=O)NC(=O)CN1CCCCCCC1 | 21.2 µg/mL (≈ 78.7 µM) |
| N#Cc1c(-c2ccccc2Cl)c2c([nH]c1=O)-c1ccccc1OC2 | 11.6 µg/mL (≈ 34.7 µM) |
| Cc1ccc(C)c(NC(=O)CCC(=O)N/N=C/c2cccnc2)c1 | > 48.7 µg/mL |
| Cc1c(C(=O)NC2CCOC2)oc2c(F)cccc12 (centres undefined) | > 39.5 µg/mL |
| O=C1CC[C@@H](C(=O)N2CSC[C@H]2C(=O)O)N1 ([pGlu]-[Thz]-OH) | > 36.6 µg/mL |
| O=C1CN(CC(=O)NC2CCCc3ccccc32)CCN1 (centres undefined) | > 43.1 µg/mL |
| O=C(CSc1ncnc2c1oc1ccccc12)NC1CCCC1 | 3.4 µg/mL (≈ 10.4 µM) |
| CCOC(=O)C1(Cc2ccc(Cl)cc2)CCN(C2CCC2)CC1 | 44 µg/mL (≈ 131 µM) |
| CN(Cc1c(F)cccc1Cl)C(=O)c1ccc(NC(=O)CC2SC(N3CCCCC3)=NC2=O)cc1 (centres undefined) | 53.2 µg/mL (≈ 103 µM) |
| Cc1ccc(C(=O)C(=O)c2ccc(C)c(N)c2)cc1N | 35 µg/mL (≈ 130 µM) |
| CCOC(=O)c1c(NCCN(C)C)c2ccccc2[nH]c1=O | > 45.5 µg/mL |
| Cn1c(=O)c2c(nc3n2CC(O)CN3c2ccccc2)n(C)c1=O (centres undefined) | > 49.1 µg/mL |
| CC(=O)Nc1ccc(C(=O)OCc2ccc(F)cc2Cl)cc1 | 1.7 µg/mL (≈ 5.28 µM) |
| COc1ccc(CN2C(=O)c3ccccc3C2=O)cc1C(=O)O | > 46.7 µg/mL |
| COc1cc([N+](=O)[O-])ccc1NC(=S)N1CCOCC1 | > 44.6 µg/mL |
| CC(C)CN(C(=O)c1ccco1)C1CCS(=O)(=O)C1 (centres undefined) | > 42.8 µg/mL |

| Compound | solubility kinetic |
| --- | --- |
| Oc1ccc(CCC2CCCCN2Cc2nc(C3CC3)no2)cc1 (centres undefined) | > 49.1 µg/mL |
| CC(=O)N1C(C)(C)CC(=NOC(=O)c2ccc(C)cc2)CC1(C)C | > 49.6 µg/mL |
| OC(COc1ccc(F)cc1Cl)CN1CCc2ccccc2C1 (centres undefined) | 37.4 µg/mL (≈ 111 µM) |
| O=C1CNC(=O)/C(=C\c2ccc(F)cc2)N1 | 5 µg/mL (≈ 22.7 µM) |
| COc1ccc(NC(=O)COC(=O)c2cccn2C)cc1S(=O)(=O)N1CCCCC1 | 32.6 µg/mL (≈ 74.9 µM) |
| COc1ccc(C(=O)Nc2ccccc2C(=O)NCc2ccco2)cc1 | 2.1 µg/mL (≈ 5.99 µM) |
| CCCNc1nc2ccccc2c(=O)[nH]1 | > 30.5 µg/mL |
| O=c1c(N2CCOCC2)c(N2CCOCC2)c1=O | > 37.8 µg/mL |
| CC1CCN(C(=O)CNC(=O)c2ccc(Br)o2)CC1 | > 49.4 µg/mL |
| O=C(/C=C1\SC(=O)NC1=O)Nc1ccc(C(=O)O)cc1 | > 43.8 µg/mL |
| S=C(NCCN1CCOCC1)NC1CCCCC1 | 38.5 µg/mL (≈ 142 µM) |
| COc1ccc(C(=O)Nc2ccc(S(=O)(=O)N3CCOCC3)cc2)cc1 | 2.9 µg/mL (≈ 7.7 µM) |
| Cc1nc(N2CCCCC2)c(C#N)c(C)c1[N+](=O)[O-] | 3.8 µg/mL (≈ 14.6 µM) |
| CC(=O)Nc1ccc(S(=O)(=O)N2CCCC(C(=O)O)C2)cc1 (centres undefined) | > 49 µg/mL |
| O=C(COC(=O)/C=C/c1ccccc1[N+](=O)[O-])Nc1ccc(S(=O)(=O)N2CCOCC2)cc1 | 24 µg/mL (≈ 50.5 µM) |
| CC(Sc1ncccn1)C(=O)Nc1ccc2c(c1)OCO2 (centres undefined) | 45 µg/mL (≈ 148 µM) |
| COc1ccc(NC(=O)CS(=O)(=O)c2ccc(F)cc2)cc1 | 46.9 µg/mL (≈ 145 µM) |
| COc1cccc(Oc2c(C)oc3c(CN4CCCC4)c(O)ccc3c2=O)c1 | 40.6 µg/mL (≈ 106 µM) |
| O=C(NC(=S)NCc1ccccc1)c1ccc(Br)cc1 | < 0.4 µg/mL |
